Data as given in patent US10370343B2, “[6,6] Fused bicyclic HDAC8 inhibitors” (FORMA Therapeutics, Inc., priority 2015, dated 2019).
Structures can show the parent of a compound that is named as a salt.

biological target: T1, Full length human recombinant HDAC8 protein (Homo sapiens, UniProt Q9BY41); assay: In vitro histone deacetylase assay: enzymatic HDAC8 electrophoretic mobility shift assay; type: biochemical; details: electrophoretic mobility shift assay; enzyme 1 nM; 2 μM fluorescently labeled peptide substrate RHKK(Ac)-NH2; 25° C.; 12 concentrations; read-out: HDAC8 IC50
T1 construct: Full length human recombinant HDAC8 protein was expressed in baculoviral system; made in house
T1 sequence (Q9BY41 1-377): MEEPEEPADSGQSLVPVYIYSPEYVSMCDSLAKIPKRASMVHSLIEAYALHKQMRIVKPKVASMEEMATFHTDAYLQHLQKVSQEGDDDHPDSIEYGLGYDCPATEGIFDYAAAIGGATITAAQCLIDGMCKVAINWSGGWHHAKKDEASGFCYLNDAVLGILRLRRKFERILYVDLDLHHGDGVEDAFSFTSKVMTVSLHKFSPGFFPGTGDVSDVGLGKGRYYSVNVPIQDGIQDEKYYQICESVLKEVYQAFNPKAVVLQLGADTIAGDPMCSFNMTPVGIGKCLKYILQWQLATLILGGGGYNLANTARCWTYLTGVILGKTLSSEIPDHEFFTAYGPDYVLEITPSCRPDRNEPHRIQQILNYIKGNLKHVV

SMILES | IC50 [µM]
CC1CN(Cc2ccccc2)c2cc(C(=O)NO)ccc2O1 (stereo not shown) [Compound I-83, 4-benzyl-N-hydroxy-2-methyl-3,4-dihydro-2H-benzo[b][1,4]oxazine-6-carboxamide] | 0.1 to 1
COc1ccc(CN2C(=O)C(CCN(C)C)Oc3ccc(C(=O)NO)cc32)cc1 (stereo not shown) [Compound I-105, 2-(2-(dimethylamino)ethyl)-N-hydroxy-4-(4-methoxybenzyl)-3-oxo-3,4-dihydro-2H-benzo[b][1,4]oxazine-6-carboxamide] | 0.025 to 0.1
CN1CC(C(=O)N2CC3(CC3)c3ccccc32)Oc2ccc(C(=O)NO)cc21 (stereo not shown) [Compound I-3, N-hydroxy-4-methyl-2-(spiro[cyclopropane-l,3′-indoline]-1′-carbonyl)-3,4-dihydro-2H-benzo[b][1,4]oxazine-6-carboxamide hydrochloride] | 0.1 to 1
O=C(NO)c1ccc2c(c1)N(Cc1cccc(OC(F)F)c1)CCO2 [Compound I-132, 4-(3-(difluoromethoxy)benzyl)-N-hydroxy-3,4-dihydro-2H-benzo[b][1,4]oxazine-6-carboxamide] | < 0.025
CN1CC(C(=O)NCc2ccccc2)Oc2ccc(C(=O)NO)cc21 (stereo not shown) [Compound I-5, N^2-benzyl-N^6-hydroxy-4-methyl-3,4-dihydro-2H-benzo[b][1,4]oxazine-2,6-dicarboxamide hydrochloride] | 0.025 to 0.1
CC(C)CN1C(=O)COc2ccc(C(=O)NO)cc21 [Compound I-57, N-hydroxy-4-isobutyl-3-oxo-3,4-dihydro-2H-benzo[b][1,4]oxazine-6-carboxamide] | 0.1 to 1
COc1ccccc1CN1CCOc2ccc(C(=O)NO)cc21 [Compound I-126, N-hydroxy-4-(2-methoxybenzyl)-3,4-dihydro-2H-benzo[b][1,4]oxazine-6-carboxamide] | 0.1 to 1
O=C(NO)c1ccc2c(c1)N(Cc1nc3ccc(Cl)cc3n1CC1CC1)C(=O)CO2 [Compound I-260, 4-((6-chloro-1-(cyclopropylmethyl)-1H-benzo[d]imidazol-2-yl)methyl)-N-hydroxy-3-oxo-3,4-dihydro-2H-benzo[b][1,4]oxazine-6-carboxamide] | 0.1 to 1
COCCN1C(=O)COc2ccc(C(=O)NO)cc21 [Compound I-43, N-hydroxy-4-(2-methoxyethyl)-3-oxo-3,4-dihydro-2H-benzo[b][1,4]oxazine-6-carboxamide] | 0.1 to 1
O=C(NO)c1ccc2c(c1)N(CCOc1ccc(C(F)(F)F)cc1)C(=O)CO2 [Compound I-55, N-hydroxy-3-oxo-4-(2-(4-(trifluoromethyl)phenoxy)ethyl)-3,4-dihydro-2H-benzo[b][1,4]oxazine-6-carboxamide] | 0.025 to 0.1
O=C(NO)c1cccc2c1CCCN2c1nc2ccccc2[nH]1 [Compound I-14, 1-(1H-1,3-benzodiazol-2-yl)-N-hydroxy-1,2,3,4-tetrahydroquinoline-5-carboxamide] | > 1
CC(C)=CCCN1C(=O)COc2ccc(C(=O)NO)cc21 [Compound I-44, N-hydroxy-4-(4-methylpent-3-en-1-yl)-3-oxo-3,4-dihydro-2H-benzo[b][1,4]oxazine-6-carboxamide] | 0.025 to 0.1
COc1ccc(C(=O)N2CCCc3ccc(C(=O)NO)cc32)cc1 [Compound I-112, N-hydroxy-1-(4-methoxybenzoyl)-1,2,3,4-tetrahydroquinoline-7-carboxamide] | 0.1 to 1
COCCn1c(N2CCCc3cc(C(=O)NO)ccc32)nc2ccccc21 [Compound I-111, N-hydroxy-1-(1-(2-methoxyethyl)-1H-benzo[d]imidazol-2-yl)-1,2,3,4-tetrahydroquinoline-6-carboxamide] | 0.1 to 1
CN1CC(C(=O)NCc2ccccc2)Oc2cc(C(=O)NO)ccc21 (stereo not shown) [Compound I-11, N^2-benzyl-N^7-hydroxy-4-methyl-3,4-dihydro-2H-benzo[b][1,4]oxazine-2,7-dicarboxamide] | 0.025 to 0.1
COCCn1c(N2CCCc3c(C(=O)NO)cccc32)nc2ccccc21 [Compound I-13, N-hydroxy-1-(1-(2-methoxyethyl)-1H-benzo[d]imidazol-2-yl)-1,2,3,4-tetrahydroquinoline-5-carboxamide] | > 1

Next, values leading:

IC50 [µM] | SMILES
0.1 to 1 | CS(=O)(=O)c1ccc(CN2C(=O)COc3cc(C(=O)NO)ccc32)cc1 [Compound I-90, N-hydroxy-4-(4-(methylsulfonyl)benzyl)-3-oxo-3,4-dihydro-2H-benzo[b][1,4]oxazine-7-carboxamide]
< 0.025 | CS(=O)(=O)c1ccc(CN2CCOc3ccc(C(=O)NO)cc32)c(Cl)c1 [Compound I-134, 4-(2-chloro-4-(methylsulfonyl)benzyl)-N-hydroxy-3,4-dihydro-2H-benzo[b][1,4]oxazine-6-carboxamide]
0.025 to 0.1 | O=C(NO)c1ccc2c(c1)N(Cc1ccccc1)C(=O)CO2 [Compound I-32, 4-benzyl-N-hydroxy-3-oxo-3,4-dihydro-2H-benzo[b][1,4]oxazine-6-carboxamide]
0.025 to 0.1 | COc1ccc(CN2CCOc3ccc(C(=O)NO)cc32)cc1S(C)(=O)=O [Compound I-139, N-hydroxy-4-(4-methoxy-3-(methylsulfonyl)benzyl)-3,4-dihydro-2H-benzo[b][1,4]oxazine-6-carboxamide]
0.1 to 1 | COc1ccc(CN2C(=O)COc3cc(C(=O)NO)ccc32)cc1 [Compound I-89, N-hydroxy-4-(4-methoxybenzyl)-3-oxo-3,4-dihydro-2H-benzo[b][1,4]oxazine-7-carboxamide]
0.1 to 1 | O=C(NO)c1ccc2c(c1)N(Cc1ccccn1)C(=O)CO2 [Compound I-61, N-hydroxy-3-oxo-4-(pyridin-2-ylmethyl)-3,4-dihydro-2H-benzo[b][1,4]oxazine-6-carboxamide]
< 0.025 | O=C(NO)c1ccc2c(c1)N(Cc1ccc(C(F)(F)F)cc1)C(=O)CO2 [Compound I-35, N-hydroxy-3-oxo-4-(4-(trifluoromethyl)benzyl)-3,4-dihydro-2H-benzo[b][1,4]oxazine-6-carboxamide]
< 0.025 | CC(c1ccc(S(C)(=O)=O)cc1)N1CCS(=O)(=O)c2ccc(C(=O)NO)cc21 (stereo not shown) [Compound I-16, N-hydroxy-4-(1-(4-(methylsulfonyl)phenyl)ethyl)-3,4-dihydro-2H-benzo[b][1,4]thiazine-6-carboxamide-1,1-dioxide]
0.1 to 1 | O=C(NO)c1ccc2c(c1)N(Cc1ccccc1-c1ccccc1)C(=O)CO2 [Compound I-257, 4-([1,1′-biphenyl]-2-ylmethyl)-N-hydroxy-3-oxo-3,4-dihydro-2H-benzo[b][1,4]oxazine-6-carboxamide]
0.1 to 1 | COc1ccccc1CN1C(=O)COc2ccc(C(=O)NO)cc21 [Compound I-63, N-hydroxy-4-(2-methoxybenzyl)-3-oxo-3,4-dihydro-2H-benzo[b][1,4]oxazine-6-carboxamide]
0.025 to 0.1 | CC1Oc2ccc(C(=O)NO)cc2N(Cc2ccccc2)C1=O (stereo not shown) [Compound I-153, 4-benzyl-N-hydroxy-2-methyl-3-oxo-3,4-dihydro-2H-benzo[b][1,4]oxazine-6-carboxamide]
0.1 to 1 | O=C(NO)c1ccc2c(c1)N(Cc1cccc(S(=O)(=O)C(F)(F)F)c1)C(=O)CO2 [Compound I-18, N-hydroxy-3-oxo-4-(3-((trifluoromethyl)sulfonyl)benzyl)-3,4-dihydro-2H-benzo[b][1,4]oxazine-6-carboxamide]
